Data reported in US7060872B1, “Method for producing plants having modified canopy size or seedless fruit” (The State of Israel-Ministry of Agriculture & Rural …, priority 1998, dated 2006).
“Also recorded” adds a separate entry of the source.

Test system: transgenic tomato plants expressing the sps streptavidin construct
Test: External biotin application to sps transgenic tomato plants (reversal of degeneration)
Format: in vivo
Excerpt: The morphology and development of leaves of 6 weeks old plants obtained from non transgenic plant and transgenic tomato plants expressing the sps streptavidin construct and treated daily with biotin were also examined. FIG. 7 depicts the results of this study. […] This degeneration was to a lesser degree in the treated plants. Non transgenic plants both biotin treated and untreated appeared normal.
All of the plants treated with biotin remained green and vital throughout their development.

For `O=C(O)CCCC[C@@H]1SC[C@@H]2NC(=O)N[C@@H]21` [biotin], the “effect of daily biotin spraying after the initial chlorotic symptoms, on leaves” value (2 μM biotin, daily spray) was “development of normal leaves”, the “effect of daily biotin spraying after the initial necrotic lesion” value (2 μM biotin, daily spray) was “stopped or prevented further development of degenerative symptoms” and the “effect of daily biotin spraying after the initial flower buds, on fruit and seed” value (2 μM biotin, daily spray, plants with seedless fruit) was “development of normal fruit and the restoration of normal seed development”. The “effect of spraying biotin on the affected area” value (6 mg/liter biotin) was “stopped the degeneration process and plants' growth was restored”, the “effect of biotin application to T0 plants on germination of their seeds” value (seeds otherwise non-germinating (FIG. 6)) was “restored the germination; also recorded: normal germination” and the “effect of biotin solution on leaf development of a degenerated T0 plant” value (seen 10 or 20 days after application (FIG. 5)) was “restored normal leaf development”. For the same molecule, the “tissue degeneration after a single biotin treatment” value (treated once after 3 weeks, 6 weeks old plants, versus untreated transgenic plants (FIG. 7)) was “lesser degree”.
